In patent US12662479B2 (Foghorn Therapeutics Inc., priority 2020, dated 2026):
Structures can show the parent of a compound that is named as a salt.

Tests used:
HiBit-BRM fusion protein = target: T1, HiBit-BRM fusion protein (Homo sapiens, UniProt P51531); assay: HiBiT-BRM cell-based degradation assay (Nano-Glo HiBiT Lytic Detection, 24 h); conditions: HeLa cells expressing HiBiT-BRM; for DC50: read-out: BRM HiBit Degradation IC50; for BRM HiBit Degradation Maximum measured: top dose 30 μM
T1 construct: expressed in transfected cells
Method in brief: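 Percent BRM loss was derived from HiBiT luminescence relative to DMSO-treated cells and cells given 2 μM of a known BRM/BRG1 degrader. Treatment lasted 24 h in HiBiT-BRM HeLa cells, with a top final concentration of 30 μM.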

[1] = target: T2, HiBit-BRG1 fusion protein (Homo sapiens, UniProt P51532); assay: HiBiT-BRG1 cell-based degradation assay (Nano-Glo HiBiT Lytic Detection, 24 h); conditions: HeLa cells expressing HiBit-BRG1 and LgBit; for DC50: read-out: BRG1 HiBit Degradation IC50; for Dmax: HeLa, top dose 30 μM, read-out: BRG1 HiBit Degradation Maximum measured
T2 construct: expressed in transfected cells
Method in brief: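 Degradation is scaled from DMSO-treated cells (0%) to cells given 2 μM of a known BRM/BRG1 degrader (100%). HeLa cells stably carrying HiBiT-BRG1 plus LgBiT (5000/well) were lysed with Nano-Glo HiBiT detection reagent, shaken 10 min at RT, and luminescence read.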

T1 sequence (P51531 whole entry, the tested form may be a part): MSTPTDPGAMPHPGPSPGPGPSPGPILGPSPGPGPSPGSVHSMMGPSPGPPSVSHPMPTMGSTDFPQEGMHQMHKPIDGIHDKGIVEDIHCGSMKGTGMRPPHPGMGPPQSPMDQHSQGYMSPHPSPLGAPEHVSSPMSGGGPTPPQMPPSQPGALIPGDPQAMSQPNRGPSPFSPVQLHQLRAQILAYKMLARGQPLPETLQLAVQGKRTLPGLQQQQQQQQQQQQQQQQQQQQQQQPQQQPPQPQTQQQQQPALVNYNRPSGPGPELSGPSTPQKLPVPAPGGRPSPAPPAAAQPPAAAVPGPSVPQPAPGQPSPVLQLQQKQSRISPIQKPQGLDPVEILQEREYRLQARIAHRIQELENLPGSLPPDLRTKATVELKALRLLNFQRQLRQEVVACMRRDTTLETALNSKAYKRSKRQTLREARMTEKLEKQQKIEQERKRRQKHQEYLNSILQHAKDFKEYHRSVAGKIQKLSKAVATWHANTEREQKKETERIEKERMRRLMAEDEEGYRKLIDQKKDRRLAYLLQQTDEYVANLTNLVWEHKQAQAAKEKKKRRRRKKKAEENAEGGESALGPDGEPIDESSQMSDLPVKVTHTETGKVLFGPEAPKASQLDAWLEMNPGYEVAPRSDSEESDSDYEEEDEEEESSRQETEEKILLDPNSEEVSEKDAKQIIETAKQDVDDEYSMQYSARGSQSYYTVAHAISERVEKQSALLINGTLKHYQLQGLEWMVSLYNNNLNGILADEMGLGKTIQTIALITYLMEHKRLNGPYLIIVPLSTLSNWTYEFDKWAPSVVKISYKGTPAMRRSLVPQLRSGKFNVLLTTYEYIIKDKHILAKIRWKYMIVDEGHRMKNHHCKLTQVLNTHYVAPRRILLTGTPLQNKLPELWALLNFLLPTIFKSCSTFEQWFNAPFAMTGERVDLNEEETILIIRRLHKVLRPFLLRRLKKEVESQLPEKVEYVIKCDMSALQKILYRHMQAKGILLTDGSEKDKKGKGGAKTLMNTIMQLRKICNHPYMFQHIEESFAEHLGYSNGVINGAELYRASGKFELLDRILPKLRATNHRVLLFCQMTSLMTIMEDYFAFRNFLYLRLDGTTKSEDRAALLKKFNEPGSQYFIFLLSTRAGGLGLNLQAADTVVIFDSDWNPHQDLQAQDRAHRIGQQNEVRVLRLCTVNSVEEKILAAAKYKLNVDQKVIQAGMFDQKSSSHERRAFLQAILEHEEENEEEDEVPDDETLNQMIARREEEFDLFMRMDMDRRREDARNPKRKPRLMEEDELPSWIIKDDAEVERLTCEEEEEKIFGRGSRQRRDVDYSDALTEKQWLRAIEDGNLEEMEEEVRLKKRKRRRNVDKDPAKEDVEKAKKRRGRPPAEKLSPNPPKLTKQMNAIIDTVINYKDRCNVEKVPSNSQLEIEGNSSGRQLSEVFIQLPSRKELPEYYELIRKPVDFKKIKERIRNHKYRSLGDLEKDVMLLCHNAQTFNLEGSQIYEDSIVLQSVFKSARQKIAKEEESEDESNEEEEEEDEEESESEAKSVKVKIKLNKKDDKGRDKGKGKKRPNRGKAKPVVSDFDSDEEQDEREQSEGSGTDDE
T2 sequence (P51532 whole entry, the tested form may be a part): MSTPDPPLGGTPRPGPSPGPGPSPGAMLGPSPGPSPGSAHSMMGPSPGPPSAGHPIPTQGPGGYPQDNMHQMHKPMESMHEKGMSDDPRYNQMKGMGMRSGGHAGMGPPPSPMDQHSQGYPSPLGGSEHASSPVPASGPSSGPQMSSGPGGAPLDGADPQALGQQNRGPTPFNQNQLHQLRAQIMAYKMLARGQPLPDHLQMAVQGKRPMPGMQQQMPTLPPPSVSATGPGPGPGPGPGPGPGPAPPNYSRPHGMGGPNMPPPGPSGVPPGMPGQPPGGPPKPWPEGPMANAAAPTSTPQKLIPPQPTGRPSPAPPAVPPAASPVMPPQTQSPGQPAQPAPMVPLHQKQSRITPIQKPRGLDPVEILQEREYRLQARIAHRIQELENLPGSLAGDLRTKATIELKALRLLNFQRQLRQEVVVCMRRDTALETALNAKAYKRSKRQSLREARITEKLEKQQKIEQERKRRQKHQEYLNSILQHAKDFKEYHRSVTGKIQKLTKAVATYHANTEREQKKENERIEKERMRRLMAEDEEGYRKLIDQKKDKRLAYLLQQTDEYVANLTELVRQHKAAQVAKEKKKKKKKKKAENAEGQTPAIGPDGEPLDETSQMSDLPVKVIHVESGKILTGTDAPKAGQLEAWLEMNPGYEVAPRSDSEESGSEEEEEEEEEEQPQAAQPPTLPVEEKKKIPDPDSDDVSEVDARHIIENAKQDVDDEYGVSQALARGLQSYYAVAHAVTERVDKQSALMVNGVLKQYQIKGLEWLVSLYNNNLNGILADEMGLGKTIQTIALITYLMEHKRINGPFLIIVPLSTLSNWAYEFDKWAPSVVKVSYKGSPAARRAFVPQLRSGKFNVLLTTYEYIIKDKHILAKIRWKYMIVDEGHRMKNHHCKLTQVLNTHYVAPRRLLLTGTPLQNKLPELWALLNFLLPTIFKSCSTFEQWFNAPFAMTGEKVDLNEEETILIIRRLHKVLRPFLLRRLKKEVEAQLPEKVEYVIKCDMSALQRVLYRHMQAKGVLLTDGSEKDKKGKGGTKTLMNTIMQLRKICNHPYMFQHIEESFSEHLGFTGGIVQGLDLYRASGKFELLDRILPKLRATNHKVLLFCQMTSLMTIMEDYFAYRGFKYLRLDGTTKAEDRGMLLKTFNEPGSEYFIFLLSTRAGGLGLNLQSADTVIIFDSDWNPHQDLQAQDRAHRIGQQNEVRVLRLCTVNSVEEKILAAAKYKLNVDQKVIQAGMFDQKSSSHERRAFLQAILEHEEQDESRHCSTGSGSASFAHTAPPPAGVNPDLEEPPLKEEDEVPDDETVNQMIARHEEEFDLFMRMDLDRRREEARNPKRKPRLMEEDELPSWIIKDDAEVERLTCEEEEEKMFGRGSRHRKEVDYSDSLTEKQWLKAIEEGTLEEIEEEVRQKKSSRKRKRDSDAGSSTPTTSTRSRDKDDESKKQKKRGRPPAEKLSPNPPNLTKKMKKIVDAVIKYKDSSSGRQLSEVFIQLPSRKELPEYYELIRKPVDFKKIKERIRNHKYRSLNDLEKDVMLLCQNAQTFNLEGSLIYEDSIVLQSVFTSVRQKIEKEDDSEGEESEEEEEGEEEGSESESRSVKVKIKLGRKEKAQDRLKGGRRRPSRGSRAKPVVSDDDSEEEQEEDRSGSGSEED

## CS(=O)(=O)n1ccc(C(=O)N[C@@H](COCc2ccc(CNC(=O)CCOCCOCCOc3cccc4c3C(=O)N(C3CCC(=O)NC3=O)C4=O)cc2)C(=O)Nc2nc(-c3ccccc3)cs2)c1 (stereo partly drawn) [Compound 182, 3-[2-(2-[[2-(2,6-dioxopiperidin-3-yl)-1,3-dioxoisoindol-4-yl]oxy]ethoxy)ethoxy]-N-[(4-[[(2S)-2-[(1-methanesulfonylpyrrol-3-yl)formamido]-2-[(4-phenyl-1,3-thiazol-2-yl)carbamoyl]ethoxy]methyl]phenyl)methyl]propanamide]
HiBit-BRM fusion protein
  DC50: > 10000 nM
  BRM HiBit Degradation Maximum measured: C (‘C’ = Maximum degradation <50%)
[1]
  DC50: > 10000 nM
  Dmax: < 50%

## CS(=O)(=O)n1ccc(C(=O)N[C@@H](COCc2ccc(C(=O)NC3CCN(CCOc4ccc5c(c4)C(=O)N(C4CCC(=O)NC4=O)C5=O)CC3)cc2)C(=O)Nc2nc(-c3ccccc3)cs2)c1 (stereo partly drawn) [Compound 247, N-[1-(2-[[2-(2,6-dioxopiperidin-3-yl)-1,3-dioxoisoindol-5-yl]oxy]ethyl)piperidin-4-yl]-4-[[(2S)-2-[(1-methanesulfonylpyrrol-3-yl)formamido]-2-[(4-phenyl-1,3-thiazol-2-yl)carbamoyl]ethoxy]methyl]benzamide]
HiBit-BRM fusion protein
  DC50: 100 to 1000 nM
  BRM HiBit Degradation Maximum measured: A (‘A’ = Maximum degradation >75%)
[1]
  DC50: 100 to 1000 nM
  Dmax: > 75%

## CS(=O)(=O)n1ccc(C(=O)N[C@@H](COCc2ccc(C(=O)NCCOCCOCCOCCNC(=O)COc3ccc4c(c3)C(=O)N(C3CCC(=O)NC3=O)C4=O)cc2)C(=O)Nc2nc(-c3ccccc3)cs2)c1 (stereo partly drawn) [Compound 202, (2S)-3-[(4-[[2-(2-[2-[2-(2-[[2-(2,6-dioxopiperidin-3-yl)-1,3-dioxoisoindol-5-yl]oxy]acetamido)ethoxy]ethoxy]ethoxy)ethyl]carbamoyl]phenyl)methoxy]-2-[(1-methanesulfonylpyrrol-3-yl)formamido]-N-(4-phenyl-1,3-thiazol-2-yl)propanamide]
HiBit-BRM fusion protein
  DC50: > 10000 nM
  BRM HiBit Degradation Maximum measured: C (‘C’ = Maximum degradation <50%)
[1]
  DC50: > 10000 nM
  Dmax: < 50%

## CN1C(=O)CCC(N2C(=O)c3cccc(OCC(=O)NCCCCCCCCNC(=O)C4(c5cc(-c6cccc(-c7csc(NC(=O)CNC(=O)c8ccn(S(C)(=O)=O)c8)n7)c6)ccn5)CC4)c3C2=O)C1=O (stereo not drawn) [Compound 129, N-[2-[[4-[3-[2-[1-[8-[[2-[2-(1-methyl-2,6-dioxo-3-piperidyl)-1,3-dioxo-isoindolin-4-yl]oxyacetyl]amino]octylcarbamoyl]cyclopropyl]-4-pyridyl]phenyl]thiazol-2-yl]amino]-2-oxo-ethyl]-1-methylsulfonyl-pyrrole-3-carboxamide]
HiBit-BRM fusion protein
  DC50: > 10000 nM
  BRM HiBit Degradation Maximum measured: C (‘C’ = Maximum degradation <50%)
[1]
  DC50: > 10000 nM
  Dmax: < 50%

## CS(=O)(=O)n1ccc(C(=O)NCC(=O)Nc2nc(-c3cccc(-c4cccc(CNC(=O)CCCCCCCCCCNc5cccc6c5C(=O)N(C5CCC(=O)NC5=O)C6=O)c4)c3)cs2)c1 (stereo not drawn) [Compound 51, N-[2-[[4-[3-[3-[[11-[[2-(2,6-dioxo-3-piperidyl)-1,3-dioxo-isoindolin-4-yl]amino]undecanoylamino]methyl]-phenyl]phenyl]thiazol-2-yl]amino]-2-oxo-ethyl]-1-methylsulfonyl-pyrrole-3-carboxamide]
HiBit-BRM fusion protein
  DC50: > 10000 nM
  BRM HiBit Degradation Maximum measured: C (‘C’ = Maximum degradation <50%)
[1]
  DC50: 100 to 1000 nM
  Dmax: 50 to 75%

## CS(=O)(=O)n1ccc(C(=O)N[C@@H](COCc2ccc(C(=O)NCCOC3CN(c4ccc5c(c4)C(=O)N(C4CCC(=O)NC4=O)C5=O)C3)cc2)C(=O)Nc2nc(-c3ccccc3)cs2)c1 (stereo partly drawn) [Compound 246, N-[2-([1-[2-(2,6-dioxopiperidin-3-yl)-1,3-dioxoisoindol-5-yl]azetidin-3-yl]oxy)ethyl]-4-[[(2S)-2-[(1-methanesulfonylpyrrol-3-yl)formamido]-2-[(4-phenyl-1,3-thiazol-2-yl)carbamoyl]ethoxy]methyl]benzamide]
HiBit-BRM fusion protein
  DC50: 100 to 1000 nM
  BRM HiBit Degradation Maximum measured: B (‘B’ = Maximum degradation ≥50% and ≤75%)
[1]
  DC50: 100 to 1000 nM
  Dmax: > 75%

## Cc1ncsc1-c1ccc(CNC(=O)[C@@H]2C[C@@H](O)CN2C(=O)[C@@H](NC(=O)CCN2CCC(C(=O)NCc3cccc(-c4cccc(-c5csc(NC(=O)CNC(=O)c6ccn(S(C)(=O)=O)c6)n5)c4)c3)CC2)C(C)(C)C)cc1 [Compound 155, 1-(2-[[(2S)-1-[(2S,4R)-4-hydroxy-2-([[4-(4-methyl-1,3-thiazol-5-yl)phenyl]methyl]carbamoyl)pyrrolidin-1-yl]-3,3-dimethyl-1-oxobutan-2-yl]carbamoyl]ethyl)-N-[[3-(2-[2-[(1-methanesulfonylpyrrol-3-yl)formamido]acetamido]-1,3-thiazol-4-yl)-[1,1-biphenyl]-3-yl]methyl]piperidine-4-carboxamide formate]
HiBit-BRM fusion protein
  DC50: > 10000 nM
  BRM HiBit Degradation Maximum measured: C (‘C’ = Maximum degradation <50%)
[1]
  DC50: > 10000 nM

## Cc1ncsc1-c1ccc(CNC(=O)[C@@H]2C[C@@H](O)CN2C(=O)[C@@H](NC(=O)CCCC(=O)NCCOc2cc(-c3cccc(-c4csc(NC(=O)CNC(=O)c5ccn(S(C)(=O)=O)c5)n4)c3)ccn2)C(C)(C)C)cc1 [Compound 77, N1-((S)-1-((2S,4R)-4-hydroxy-2-((4-(4-methylthiazol-5-yl)benzyl)carbamoyl)pyrrolidin-1-yl)-3,3-dimethyl-1-oxobutan-2-yl)-N5-(2-((4-(3-(2-(2-(1-(methylsulfonyl)-1H-pyrrole-3-carboxamido)acetamido)thiazol-4-yl)phenyl)pyridin-2-yl)oxy)ethyl)glutaramide]
HiBit-BRM fusion protein
  DC50: > 10000 nM
  BRM HiBit Degradation Maximum measured: C (‘C’ = Maximum degradation <50%)
[1]
  DC50: > 10000 nM
  Dmax: < 50%

## CS(=O)(=O)n1ccc(C(=O)N[C@@H](COCc2ccc(C(=O)NCCCCNc3ccc4c(c3)C(=O)N(C3CCC(=O)NC3=O)C4=O)cc2)C(=O)Nc2nc(-c3ccccc3)cs2)c1 (stereo partly drawn) [Compound 242]
HiBit-BRM fusion protein
  DC50: 100 to 1000 nM
  BRM HiBit Degradation Maximum measured: B (‘B’ = Maximum degradation ≥50% and ≤75%)
[1]
  DC50: 100 to 1000 nM
  Dmax: 50 to 75%

## Cc1ncsc1-c1ccc(CNC(=O)[C@@H]2C[C@@H](O)CN2C(=O)[C@@H](NC(=O)CCCCCNC(=O)CCCOCC[C@H](NC(=O)c2ccn(S(C)(=O)=O)c2)C(=O)Nc2nc(-c3ccccc3)cs2)C(C)(C)C)cc1 [Compound 251, (2S,4R)-4-hydroxy-1-[(2S)-2-(6-[4-[(3S)-3-[(1-methanesulfonylpyrrol-3-yl)formamido]-3-[(4-phenyl-1,3-thiazol-2-yl)carbamoyl]propoxy]butanamido]hexanamido)-3,3-dimethylbutanoyl]-N-[[4-(4-methyl-1,3-thiazol-5-yl)phenyl]methyl]pyrrolidine-2-carboxamide]
HiBit-BRM fusion protein
  DC50: > 10000 nM
  BRM HiBit Degradation Maximum measured: C (‘C’ = Maximum degradation <50%)
[1]
  DC50: > 10000 nM
  Dmax: < 50%

## Cc1ncsc1-c1ccc(CNC(=O)[C@@H]2C[C@@H](O)CN2C(=O)[C@@H](NC(=O)COCCOCCOCCNC(=O)C2(c3cc(-c4cccc(-c5csc(NC(=O)CNC(=O)c6ccn(S(C)(=O)=O)c6)n5)c4)ccn3)CC2)C(C)(C)C)cc1 [Compound 110, N-[2-[[4-[3-[2-[1-[2-[2-[2-[2-[[(1S)-1-[(2S,4R)-4-hydroxy-2-[[4-(4-methylthiazol-5-yl)phenyl]methylcarbamoyl]pyrrolidine-1-carbonyl]-2,2-dimethyl-propyl]amino]-2-oxo-ethoxy]ethoxy]ethoxy]ethylcarbamoyl]-cyclopropyl]-4-pyridyl]phenyl]thiazol-2-yl]amino]-2-oxo-ethyl]-1-methylsulfonyl-pyrrole-3-carboxamide]
HiBit-BRM fusion protein
  DC50: 100 to 1000 nM
  BRM HiBit Degradation Maximum measured: B (‘B’ = Maximum degradation ≥50% and ≤75%)
[1]
  DC50: 100 to 1000 nM
  Dmax: > 75%

## Cc1ncsc1-c1ccc(CNC(=O)[C@@H]2C[C@@H](O)CN2C(=O)[C@@H](NC(=O)CCCCC(=O)NCc2cccc(-c3cccc(-c4csc(NC(=O)CNC(=O)c5ccn(S(C)(=O)=O)c5)n4)c3)c2)C(C)(C)C)cc1 [Compound 48, N1-((S)-1-((2S,4R)-4-hydroxy-2-((4-(4-methylthiazol-5-yl)benzyl)carbamoyl)pyrrolidin-1-yl)-3,3-dimethyl-1-oxobutan-2-yl)-N6-((3′-(2-(2-(1-(methylsulfonyl)-1H-pyrrole-3-carboxamido)acetamido)thiazol-4-yl)-[1,1′-biphenyl]-3-yl)methyl)adipamide]
HiBit-BRM fusion protein
  DC50: > 10000 nM
  BRM HiBit Degradation Maximum measured: C (‘C’ = Maximum degradation <50%)
[1]
  DC50: 1000 to 10000 nM
  Dmax: 50 to 75%

## CS(=O)(=O)n1ccc(C(=O)N[C@@H](COCc2ccc(CNC(=O)CCCOc3cccc4c3C(=O)N(C3CCC(=O)NC3=O)C4=O)cc2)C(=O)Nc2nc(-c3ccccc3)cs2)c1 (stereo partly drawn) [Compound 178, 4-[[2-(2,6-dioxopiperidin-3-yl)-1,3-dioxoisoindol-4-yl]oxy]-N-[(4-[[(2S)-2-[(1-methanesulfonylpyrrol-3-yl)formamido]-2-[(4-phenyl-1,3-thiazol-2-yl)carbamoyl]ethoxy]methyl]phenyl)methyl]butanamide]
HiBit-BRM fusion protein
  DC50: > 10000 nM
  BRM HiBit Degradation Maximum measured: C (‘C’ = Maximum degradation <50%)
[1]
  DC50: > 10000 nM
  Dmax: < 50%
